Measured values: patent US8497075B2, “Methods of identifying a modulator that inhibits the binding between Epstein-Barr virus induced receptor 2 and cholesterol derived ligands” (Novartis AG, priority 2008, dated 2013)
Like-named read-outs stand apart in the source and are kept apart here.

Assays:
Assay type in all cases: cell-based
[1] = target: T1, LXRa (NR1H3) (Homo sapiens, UniProt Q13133); experiment: nuclear hormone receptor reporter gene assay; details: concentrations up to 10 μM
T1 sequence (Q13133 1-447): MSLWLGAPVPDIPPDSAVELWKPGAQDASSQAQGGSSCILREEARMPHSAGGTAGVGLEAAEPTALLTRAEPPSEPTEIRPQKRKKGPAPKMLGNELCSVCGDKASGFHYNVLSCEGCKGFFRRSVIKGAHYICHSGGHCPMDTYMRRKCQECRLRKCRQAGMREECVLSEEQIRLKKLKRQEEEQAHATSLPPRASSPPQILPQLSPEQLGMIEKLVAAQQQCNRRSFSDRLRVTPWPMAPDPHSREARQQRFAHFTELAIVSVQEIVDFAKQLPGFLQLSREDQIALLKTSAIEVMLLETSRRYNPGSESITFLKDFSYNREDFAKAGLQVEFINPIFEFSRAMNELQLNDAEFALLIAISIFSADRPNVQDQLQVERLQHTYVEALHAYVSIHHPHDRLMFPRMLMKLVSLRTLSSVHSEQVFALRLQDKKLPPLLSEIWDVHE
Excerpt: (§1) So far oxysterols have been noted to have various physiological activities namely regulate the expression of genes that participate in both sterol and fat metabolism, serve as substrates for the synthesis of bile acids, and are intermediates in the transfer of sterols from the periphery to the liver (Russell, D. W. (2000). Oxysterol biosynthetic enzymes. Biochim. Biophys. Acta 1529, 126-135). […] This included binding assays for 26 different GPCRs, functional assays of 9 different GPCRs, 40 kinase assays, as well as selected ion channels, proteases, transporter and enzyme assays.

[2] = target: T2, PPARg (NR1C3) (Homo sapiens, UniProt P37231); experiment: nuclear hormone receptor reporter gene assay; details: concentrations up to 10 μM
T2 sequence (P37231 1-505): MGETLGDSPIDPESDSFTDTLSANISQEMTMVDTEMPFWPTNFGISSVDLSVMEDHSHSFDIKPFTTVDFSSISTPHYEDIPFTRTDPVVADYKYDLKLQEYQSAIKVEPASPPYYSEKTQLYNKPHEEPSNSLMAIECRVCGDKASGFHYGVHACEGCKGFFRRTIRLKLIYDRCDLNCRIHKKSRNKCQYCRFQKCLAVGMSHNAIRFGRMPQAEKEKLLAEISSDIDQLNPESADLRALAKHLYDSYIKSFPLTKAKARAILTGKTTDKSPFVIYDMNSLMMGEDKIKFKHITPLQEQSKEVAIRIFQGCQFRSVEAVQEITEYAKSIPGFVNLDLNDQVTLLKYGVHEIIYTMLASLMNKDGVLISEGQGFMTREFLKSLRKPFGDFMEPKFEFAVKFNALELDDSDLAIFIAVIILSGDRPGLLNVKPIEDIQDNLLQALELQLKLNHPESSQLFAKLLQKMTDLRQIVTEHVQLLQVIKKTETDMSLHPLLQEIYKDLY
Excerpt: as §1

[3] = target: T3, RXRa (NR2B1) (Homo sapiens, UniProt P19793); experiment: nuclear hormone receptor reporter gene assay; details: concentrations up to 10 μM
T3 sequence (P19793 1-462): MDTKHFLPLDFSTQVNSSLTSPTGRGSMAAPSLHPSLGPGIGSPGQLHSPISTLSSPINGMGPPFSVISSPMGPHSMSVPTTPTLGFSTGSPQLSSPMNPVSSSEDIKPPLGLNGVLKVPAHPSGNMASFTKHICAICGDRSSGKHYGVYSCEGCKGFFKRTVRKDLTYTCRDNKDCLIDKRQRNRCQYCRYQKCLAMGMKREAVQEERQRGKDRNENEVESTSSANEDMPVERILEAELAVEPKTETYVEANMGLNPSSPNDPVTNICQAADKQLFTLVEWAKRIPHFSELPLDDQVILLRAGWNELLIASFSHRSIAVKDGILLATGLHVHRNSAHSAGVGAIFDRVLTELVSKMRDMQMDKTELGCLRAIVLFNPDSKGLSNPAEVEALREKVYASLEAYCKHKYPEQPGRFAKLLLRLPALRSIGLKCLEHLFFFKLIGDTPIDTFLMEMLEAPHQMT
Excerpt: as §1

[4] = target: T4, SXR (NR112) (Homo sapiens, UniProt O75469); experiment: nuclear hormone receptor reporter gene assay; details: concentrations up to 10 μM
T4 sequence (O75469 1-434): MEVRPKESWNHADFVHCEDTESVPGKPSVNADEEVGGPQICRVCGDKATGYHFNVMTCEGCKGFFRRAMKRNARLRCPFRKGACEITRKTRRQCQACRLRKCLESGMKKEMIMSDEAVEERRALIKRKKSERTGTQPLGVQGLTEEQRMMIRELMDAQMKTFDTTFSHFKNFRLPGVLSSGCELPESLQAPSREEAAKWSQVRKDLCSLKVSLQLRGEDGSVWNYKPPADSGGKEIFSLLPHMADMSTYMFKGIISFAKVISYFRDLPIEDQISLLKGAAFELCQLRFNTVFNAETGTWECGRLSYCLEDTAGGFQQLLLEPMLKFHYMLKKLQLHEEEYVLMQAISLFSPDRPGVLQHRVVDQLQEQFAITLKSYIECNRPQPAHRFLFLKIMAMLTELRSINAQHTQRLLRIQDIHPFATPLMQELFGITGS
Excerpt: as §1

[5] = target: hEBI2 (Homo sapiens, UniProt P32249); experiment: cAMP assay, hEBI2 CHO-AeqGα16 cells; design: expressed in transfected cells; host or cells: CHO-K1 expressing apoaequorin (CHO-Aeq) with Gqi5; line E2
Protocol: The same stable EBI2 cell line used in the aequorin assay was used in cAMP assay. 10,000 cells (25 μA) were seeded per well into white solid 384-well plate and incubated in 37° C. incubator overnight. 500 nl of compound was then transferred into each assay well, followed by 5 μl of forskolin addition for a final concentration of 30 μM. Cells were returned to a 37° C. incubator for 30 min. Finally 15 μl each of HiRange D2-cAMP and anti-cAMP cryptate were dispensed per well. After >1 hr room temperature incubation, data acquisition was done in the time-resolved FRET (fluorescence-resonance energy transfer) mode on Envision™ or ViewLux™ (Perkin Elmer). The ratio between the acceptor fluorescence signal (A665 nm) and donor fluorescence signal (A620 nm)×104, representing the FRET between the conjugated cAMP and the anti-cAMP antibody, was calculated and plotted on Y-axis. The higher the signal, the lower endogenous cAMP concentration is in the sample.

Chain of hEBI2 (P32249 whole entry): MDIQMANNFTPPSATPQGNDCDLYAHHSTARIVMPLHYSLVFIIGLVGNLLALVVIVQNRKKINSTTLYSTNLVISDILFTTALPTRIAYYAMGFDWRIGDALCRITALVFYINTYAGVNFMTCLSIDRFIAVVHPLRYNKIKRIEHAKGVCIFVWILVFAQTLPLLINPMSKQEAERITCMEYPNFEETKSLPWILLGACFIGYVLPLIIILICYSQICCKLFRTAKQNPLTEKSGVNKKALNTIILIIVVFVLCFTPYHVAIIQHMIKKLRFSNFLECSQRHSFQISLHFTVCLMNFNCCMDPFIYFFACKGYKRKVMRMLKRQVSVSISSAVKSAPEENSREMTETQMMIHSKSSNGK

C[C@H](CCCC(C)(C)O)[C@H]1CC[C@H]2[C@@H]3[C@H](O)C=C4C[C@@H](O)CC[C@]4(C)[C@H]3CC[C@]12C [7a,25DHC, cholest-5-ene-3b,7a,25-triol]
activation of LXRa [1]: did not activate | activation of PPARg [2]: did not activate | activation of RXRa [3]: did not activate | activation of SXR [4]: did not activate | EC50 [5]: 0.0103 µM

CC(CO)CCC[C@@H](C)[C@H]1CC[C@H]2[C@@H]3[C@H](O)C=C4C[C@@H](O)CC[C@]4(C)[C@H]3CC[C@]12C (stereo partly shown) [7a,27DHC, cholest-5-ene-3b,7a,27-triol]
activation of LXRa [1]: did not activate | activation of PPARg [2]: did not activate | activation of RXRa [3]: did not activate | activation of SXR [4]: did not activate

C[C@H](CCCC(C)(C)O)[C@H]1CC[C@H]2[C@@H]3[C@@H](O)C=C4C[C@@H](O)CC[C@]4(C)[C@H]3CC[C@]12C [7b,25DHC, cholest-5-ene-3b,7b,25-triol]
EC50 ([5]; forskolin 30 μM, read-out: EC50, cAMP assay): 10.6 µM
